SMILES strings stand for the structures. ≈ marks a conversion by molar mass, not a printed value.

Assay [1] deals with E. coli O157 ATCC 43890. As to the kind of experiment: Minimum inhibitory concentration (MIC) measurement. It is filed as cell-based. Conditions: Escherichia coli, ATCC43890, 24 h, read-out: minimum inhibitory concentration (MIC).
Assay [2] concerns E. coli O157 ATCC 35150. As to the kind of experiment: Minimum inhibitory concentration (MIC) measurement. It is filed as cell-based. Conditions: Escherichia coli, ATCC35150, 24 h, read-out: minimum inhibitory concentration (MIC).
For assay [3], the system named is E. coli O157 animal isolate [동물 분리주]. As to the kind of experiment: Minimum inhibitory concentration (MIC) measurement. Conditions: Escherichia coli, 24 h, read-out: minimum inhibitory concentration (MIC). It is filed as cell-based.
Assay [4] deals with E. coli K88 standard strain (E-126) [수과연표준균주 (E-126)]. Briefly: Minimum inhibitory concentration (MIC) measurement. It is filed as cell-based. To be noted: Escherichia coli, 24 h, read-out: minimum inhibitory concentration (MIC).
Assay [5] deals with E. coli K99 standard strain (E-125) [수과연표준균주 (E-125)]. Briefly: Minimum inhibitory concentration (MIC) measurement. It is filed as cell-based. To be noted: Escherichia coli, 24 h, read-out: minimum inhibitory concentration (MIC).
The test system of assay [6] is MRSA ATCC 700698. Briefly: Minimum inhibitory concentration (MIC) measurement. The assay is classed as cell-based, methicillin-resistant S. aureus. To be noted: Staphylococcus aureus, 24 h, read-out: minimum inhibitory concentration (MIC).
Assay [7] relates to MRSA 6 animal (chicken) isolate [동물(닭) 분리주]. Briefly: Minimum inhibitory concentration (MIC) measurement. It is filed as cell-based, methicillin-resistant S. aureus. Conditions: Staphylococcus aureus, 24 h, read-out: minimum inhibitory concentration (MIC).
Assay [8] relates to MRSA 104 human isolate [사람 분리주]. As to the kind of experiment: Minimum inhibitory concentration (MIC) measurement. It is filed as cell-based, methicillin-resistant S. aureus. Conditions: Staphylococcus aureus, 24 h, read-out: minimum inhibitory concentration (MIC).
Assay [9] relates to Salmonella enteritidis standard strain (Sal-36) [수과연표준균주 (Sal-36)]. As to the kind of experiment: Minimum inhibitory concentration (MIC) measurement. The assay is classed as cell-based. To be noted: Salmonella enterica, 24 h, read-out: minimum inhibitory concentration (MIC).
Assay [10] concerns Salmonella gallinarium standard strain [수과연표준균주]. Briefly: Minimum inhibitory concentration (MIC) measurement. The assay is classed as cell-based. Conditions: 24 h, read-out: minimum inhibitory concentration (MIC).
For assay [11], the system named is Salmonella paratyphi A JOL381. As to the kind of experiment: Minimum inhibitory concentration (MIC) measurement. The assay is classed as cell-based. Conditions: Salmonella enterica, 24 h, read-out: minimum inhibitory concentration (MIC).
Assay [12] deals with Salmonella typhi JOL380. Briefly: Minimum inhibitory concentration (MIC) measurement. To be noted: Salmonella enterica, 24 h, read-out: minimum inhibitory concentration (MIC). It is filed as cell-based.
In assay [13] the test system is Salmonella typhimurium standard strain (Sal-13) [수과연표준균주 (Sal-13)]. As to the kind of experiment: Minimum inhibitory concentration (MIC) measurement. The assay is classed as cell-based. Conditions: Salmonella enterica, 24 h, read-out: minimum inhibitory concentration (MIC).
Assay [14] has as its system Shigella dysenteriae ATCC 49557. Briefly: Minimum inhibitory concentration (MIC) measurement. It is filed as cell-based. To be noted: ATCC49557, 24 h, read-out: minimum inhibitory concentration (MIC).
Assay [15] concerns Shigrlla dysenteriae JOL377. Briefly: Minimum inhibitory concentration (MIC) measurement. The assay is classed as cell-based. Conditions: 24 h, read-out: minimum inhibitory concentration (MIC).
Assay [16] relates to Shigella flexeneri JOL378. Briefly: Minimum inhibitory concentration (MIC) measurement. It is filed as cell-based. Conditions: JOL378, 24 h, read-out: minimum inhibitory concentration (MIC).
Assay [17] relates to Vibrio cholerae O1 JOL375. Briefly: Minimum inhibitory concentration (MIC) measurement. Conditions: O1JOL375, 24 h, read-out: minimum inhibitory concentration (MIC). The assay is classed as cell-based.
For assay [18], the system named is Vibrio cholerae O139 JOL376. As to the kind of experiment: Minimum inhibitory concentration (MIC) measurement. It is filed as cell-based. To be noted: O139JOL376, 24 h, read-out: minimum inhibitory concentration (MIC).
For assay [19], the system named is all 18 causative bacteria of zoonotic infectious diseases [인수 공통 감염병을 유발하는 원인균 18종 모두]. Briefly: Minimum inhibitory concentration (MIC) measurement, all 18 strains. The assay is classed as cell-based. Conditions: 24 h; range over all 18 strains.

On to `CC1(C)S[C@@H]2[C@H](NC(=O)Cc3ccccc3)C(=O)N2[C@H]1C(=O)O` [Penicillin G], for which the MIC was 50 µg/mL (≈ 150 µM) in assay [1]; 50 µg/mL (≈ 150 µM) in assay [2]; greater than 100 µg/mL in assay [3]; 100 µg/mL (≈ 299 µM) in [4]; 50 µg/mL (≈ 150 µM) in [5]; 100 µg/mL (≈ 299 µM) in [6]. Moreover, the MIC in [7] is greater than 100 µg/mL; in assay [8], greater than 100 µg/mL; in assay [9], 50 µg/mL (≈ 150 µM); in [10], 10 µg/mL (≈ 29.9 µM); in assay [11] it was greater than 100 µg/mL; in assay [12] it was greater than 100 µg/mL. Moreover, the MIC in [13] was 10 µg/mL (≈ 29.9 µM); in [14], greater than 100 µg/mL; in assay [15], greater than 100 µg/mL; in assay [16] it was greater than 100 µg/mL; in [17] it was greater than 100 µg/mL; in [18], 1 µg/mL (≈ 2.99 µM).

In the case of `COc1cc(C(=O)OCC2OC(OC34CC5C6(O)CC3(C)OC(O6)C54COC(=O)c3ccc(O)cc3)C(O)C(O)C2O)ccc1O` (centres unmarked) [6′-오-바닐릴옥시파에오니플로린, 6'-O-vanillyloxypaeoniflorin], the MIC stood at 200 µg/mL (≈ 309 µM) in [1]; 300 µg/mL (≈ 464 µM) in assay [2]; 200 µg/mL (≈ 309 µM) in [3]; 200 µg/mL (≈ 309 µM) in assay [4]; 200 µg/mL (≈ 309 µM) in assay [6]; 300 µg/mL (≈ 464 µM) in assay [7]. In addition, the MIC in assay [8], in assay [9], in [10], in [11], in [12] and in assay [13] was 200 µg/mL (≈ 309 µM) each time. The MIC was 500 µg/mL (≈ 773 µM) in assay [14]; 200 µg/mL (≈ 309 µM) in [15]; 200 µg/mL (≈ 309 µM) in assay [16]; 100 µg/mL (≈ 155 µM) in [17]; 100 µg/mL (≈ 155 µM) in assay [18]; 100 to 500 µg/mL (≈ 155 to 773 µM) in assay [19].

Turning to `NCC1OC(OC2C(N)CC(N)C(OC3OC(CO)C(O)C(N)C3O)C2O)C(O)C(O)C1O` (centres unmarked) [Kanamycin A], the MIC in assay [1] was 10 µg/mL (≈ 20.6 µM); in assay [2], 10 µg/mL (≈ 20.6 µM); in [3], greater than 100 µg/mL; in [4], 50 µg/mL (≈ 103 µM); in assay [6], greater than 100 µg/mL; in assay [7] it was 50 µg/mL (≈ 103 µM). Also, the MIC in assay [8] is greater than 100 µg/mL; in [9], 50 µg/mL (≈ 103 µM); in [10] it was 50 µg/mL (≈ 103 µM); in assay [11] it was greater than 100 µg/mL; in assay [12] it was 50 µg/mL (≈ 103 µM); in assay [13], 50 µg/mL (≈ 103 µM). Further, the MIC in assay [14] is greater than 100 µg/mL; in assay [15] it was greater than 100 µg/mL; in [16], 10 µg/mL (≈ 20.6 µM); in assay [17], greater than 100 µg/mL; in [18] it was 50 µg/mL (≈ 103 µM).

For the origin of these results see KR20080020768A, “항균 효과를 갖는 목단피의 추출물로부터 분리된 신규구조의 6‘-오-바닐릴옥시파에오니플로린 화합물을유효성분으로 함유하는 조성물” (priority 2006, dated 2008).
